Columns and labels:
NMDA receptor [1] = biological target: T1, NMDA receptor (Mus musculus, UniProt P35438); assay: Maximal electroshock (MES)-induced tonic convulsions; type: in vivo; conditions: i.p.; for ED50: mouse, ip, 0.25 h, read-out: MES ID50
T1 construct: from tissue; host or cells: living mice (albino Swiss males for NMDA and PTZ tests, NMR females for MES)
Method: (§1) To assess NMDA receptor antagonistic properties of the tested agents by assessing anticonvulsive effects. Additionally the role of organic acid transporters in the elimination from the brain of tested agents was assessed by using an inhibitor, Probenicid, on the duration of anticonvulsive activity.
(§2) Male albino Swiss mice (19-21 g) housed 10-15 per cage were used for the NMDA lethality test (Leander et al., 1988). For pentylenetetrazol (PTZ)-induced convulsions male albino Swiss mice (25-34 g.) housed 40 per cage (58×38×20 cm) were used while in the maximal electroshock (MES) and motor impairment tests NMR female mice (18-28 g) housed 5 per cage were employed. All animals were kept with water and food ad libittum under a 12-h light-dark cycle (light on at 6 a.m.), and at a controlled temperature (20°±0.5° C.). All experiments were performed between 10 a.m. and 5 p.m. Tested agents were injected 15 min. i.p before the induction of convulsions if not stated otherwise (see below). Mrz 2/502 was dissolved in saline added with NaOH. Most other agents were dissolved in the following solution: 0.606 g Tris; 5.0 g. glucose; 0.5 g. Tween 80; and 95 ml water. The choline and tetramethylammonium salts were dissolved in distilled water.
MES (100 Hz, 0.5 sec shock duration, 50 mA shock intensity, 0.9 ms impulse duration, Ugo Basile) was applied through corneal electrodes. The presence of tonic convulsions was scored (tonic extension of hind paws with minimum angle to the body of 90°). In an additional experiment mice were injected with Probenicid (200 mg/kg) 30 min before administration of the tested agents to assess the role of organic acid transport in elimination (duration of action). The aim was to obtain ED50 s for all parameters scored using the Litchfield Wilcoxon (1949) test for quantal dose responses.

NMDA receptor [2] = biological target: T1, NMDA receptor; assay: NMDA-induced convulsions / lethality test; type: in vivo; conditions: ip, 0.25 h, i.p., 15 min before induction, read-out: NMDA ID50
Method: as §1, §2
In the NMDA-induced convulsions test in mice, a dose-response relationship for NMDA was first performed to determine the ED97 dose which was then used for testing of antagonistic properties. After injection of the ED97 dose of NMDA the animals were placed in a small cage (20×28×14 cm) and observed for 20 min. Death preceded by clonic convulsions and by tonic seizures was the pharmacological end-point.

[3] = biological target: T2, strychnine-insensitive glycine site (glycineB) of the NMDA receptor (rat cortical membranes) (Rattus norvegicus, UniProt P35439); assay: [3H]glycine binding assay; conditions: 20 nM [3H]glycine, 100 μM strychnine
T2 construct: The cortex was dissected and homogenised in 20 volumes of ice-cold 0.32M sucrose; from tissue; host or cells: brain cortex membranes of male Sprague-Dawley rats
Method: Tissue preparation was performed according to Foster and Wong (1987). Male Sprague-Dawley rats (200-250g) were decapitated and their brains were removed rapidly. The cortex was dissected and homogenised in 20 volumes of ice-cold 0.32M sucrose using a glass-Teflon homogenizer. The homogenate was centrifuged at 1000×g for 10 min. The pellet was discarded and the supernatant centrifuged at 20,000×g for 20 min. The resulting pellet was resuspended in 20 volumes of distilled water and centrifuged for 20 min at 8000×g. Then the supernatant and the buffy coat were centrifuged three times (48,000× g for 20 min) in the presence of 5 mM Tris-HCl, pH 7.4. All centrifugation steps were carried out at 4° C. After resuspension in 5 volumes of 5 mM Tris-HCl, pH 7.4 the membrane suspension was frozen rapidly at -80° C. until the day of assay. On the day of assay the membranes were thawed and washed four times by resuspension in 5 mM Tris-HCl, pH 7.4 and centrifugation at 48,000× g for 20 min. The final pellet was suspended in assay buffer.
The amount of protein in the final membrane preparation was determined according to the method of Lowry (1951) with some modifications (Hartfree, 1972). 50 μl of Protein samples (in triplicates) were diluted to 1 ml with distilled water and treated with 0.9 ml of a solution containing 2 g potassium sodium tartrate and 10 g Na2 CO3 in 500 ml 1N NaOH and 500ml water. Blank and standard (with bovine serum albumin) were set up in the same way. The tubes were placed in a water bath at 50° C. for 10 min. and cooled at room temperature. 100 μl of a solution containing 2 g potassium sodium tartrate and 1 g CuSO4 x 5 H2 O in 90 ml water and 10 ml 1N NaOH were added. The samples were left at room temperature for at least 10 min., then 3 ml of Folin-Ciocalteu reagent (1 ml of reagent diluted with 15 ml water) was added rapidly during mixing. The tubes were again heated at 50° C. for 10 min. and cooled to room temperature. Absorbencies were then read in 1 cm cuvets at 650 nm. The final protein concentration used for our studies was between 100 and 250 μg/ml.
Incubation in both binding assays was terminated using a Millipore filter system. The samples, all in triplicate, were rinsed three times with 2.5 ml ice cold assay buffer over glass fibre filters obtained from Schleicher & Schuell under a constant vacuum. Following separation and rinse the filters were placed into scintillation liquid (5 ml; Ultima Gold) and radioactivity retained on the filters was determined by using conventional liquid scintillation counter (Hewlett Packard, Liquid Scintillation Analyser). `Total binding` was the absolute amount of radioligand bound in the absence of any additives whereas `non-specific` binding was determined in the presence of a high concentration of competitor.
[^3 H]glycine binding assay
[^3 H]glycine binding assays were performed according to the method described by Kessler and co-workers (1989). Rat cortical membranes were prepared as previously described and the final pellet was suspended in 50 mM Tris-acetate, pH 7.4. At least 5 different concentrations of test compounds were incubated with 2OnM [^3 H]glycine for 30 min at 4° C. in the presence of 100 μM strychnine. All compounds were dissolved in water or DMSO, respectively. Non-specific binding was determined by including 100 μM glycine in the incubation mixture. The incubation was terminated by diluting the samples with 2 ml of stop solution (50 mM Tris-HCl including 10 mM magnesium sulphate, pH 7.4, cooled to <2° C.) followed by a further rinse with 2.5 ml buffer. Filtration was performed as rapidly as possible.

NMDA receptor [4] = biological target: T1, NMDA receptor; assay: Pentylenetetrazol (PTZ)-induced convulsions; type: in vivo; conditions: ip, 0.25 h, i.p., PTZ 90 mg/kg i.p., read-out: PTZ ID50
Method: as §1, §2
Pentylenetetrazol was injected at a dose of 90 mg/kg (i.p). The presence of general tonic convulsions was then scored for 30 min as this parameter is more sensitive to NMDA receptor antagonists than clonic convulsions. The pharmacological end-point was taken as the presence of tonus in the hind limbs with stretching.

| SMILES | ED50 (NMDA receptor [1]; 15 min before induction) [mg/kg] | ED50 (NMDA receptor [2]) [mg/kg] | IC50 [3] [nM] | ED50 (NMDA receptor [4]) [mg/kg] | activity in the MES test (NMDA receptor [1]) | MES ID50 (NMDA receptor [1]; 15 min before induction, listed as 502, 15 min) [mg/kg] |
| --- | --- | --- | --- | --- | --- | --- |
| O=c1[nH][nH]c(=O)c2nc3ccc(Cl)cc3cc12 [Mrz 2/501] | > 100 | > 100 | 80 | > 40 |  |  |
| O=c1[nH]nc(O)c2c1cc1cc(Cl)ccc1[n+]2[O-] [Mrz 2/502, 8-chloro-4-hydroxy-1-oxo-1,2-dihydropyridazino[4,5-b]-quinoline 5-oxide] |  | 26 | 13 | 8.3 | effective | 47.6 |
| O=c1[nH][nH]c(=O)c2nc3ccc(Br)cc3cc12 [Mrz 2/503] | > 100 | > 100 | 13 | > 100 |  |  |
| O=c1[nH]nc(O)c2c1cc1cc(Br)ccc1[n+]2[O-] [Mrz 2/514, 8-bromo-4-hydroxy-1-oxo-1,2-dihydropyridazino[4,5-b]-quinoline 5-oxide] | 20.2 | 99 | 4 | 12.8 | effective |  |
| O=c1[nH][nH]c(=O)c2nc3cc(Cl)c(Cl)cc3cc12 [Mrz 2/515] | > 100 | 98 |  | > 100 |  |  |
| O=c1[nH]nc(O)c2c1cc1cc(F)ccc1[n+]2[O-] [Mrz 2/516, 8-fluoro-4-hydroxy-1-oxo-1,2-dihydropyridazino[4,5-b]-quinoline 5-oxide] | 16.6 | 40 | 17 | 7.9 | effective |  |
| O=c1[nH][nH]c(=O)c2nc3ccc(F)cc3cc12 [Mrz 2/519] | > 60 | > 100 | 15 | > 100 |  |  |
